Data reported in article PMC12116762, “Topobexin targets the Topoisomerase II ATPase domain for beta isoform-selective inhibition and anthracycline cardioprotection” (Nature Communications, 2025).
Where “and” joins values, the source holds several entries; their conditions need not be identical. Identical values can stand only once.

Columns and labels:
γH2AX [1] = test: γH2AX levels in NVCM (Western blotting); format: cell-based, rat; design: γH2AX level, mean: scale not given here; details: for γH2AX level: independent replicates
Description: TOP2B and γH2AX levels in NVCM were determined as follows. After incubation, 4 × 10^5 rat neonatal cardiomyocytes were lysed with 75 µL of 2% SDS in 0.1 M Tris (pH 7.4) and boiled at 95 °C for 5 min. The protein content of each sample was determined by the BCA method and 10 μg of total protein were loaded onto a polyacrylamide gel (7.5% for TOP2B, 12% for γH2AX, Bio-Rad TGX stain-free gels). After approximately 75 min of electrophoresis (150 V, Bio-Rad Mini-PROTEAN Tetra Cell), the gels were transblotted onto nitrocellulose membranes using a semi-dry method in Transblot Turbo (Bio-Rad, USA). The next day, the membranes were blocked for 1 h in 5% skimmed milk powder in 0.05% TBS-T at room temperature (RT). For TOP2 analysis, membranes were incubated with rabbit anti-TOP2A/B (1:2,000, ab109524, Abcam, UK) in 1% BSA in PBS for 1 h at RT, washed 6 times for 5 min in 0.05% TBS-T and then incubated with HRP-labeled F(ab’)2 goat anti-rabbit IgG (1:10,000, ab6112, Abcam, UK) in 0.05% TBS-T for 1 h RT and washed again (6 × 5 min in 0.05% TBS-T). For γH2AX analysis, membranes were incubated with mouse anti-γH2AX (1:5,000; ab26350, Abcam, UK) in 5% BSA in PBS for 1 h at RT, washed with 0.05% PBS-T for 6 × 5 min, incubated with HRP-conjugated anti-mouse IgG (1:40,000; A9044 Sigma Aldrich, USA) in 5% BSA in PBS for 1 h RT and finally washed with 0.05% PBS-T for 6 times 5 min. Target proteins were visualized using a chemiluminescent detection substrate (Clarity Western ECL Substrate, Bio-Rad, USA) and a Gel Doc EZ with Image Lab software (Bio-Rad, USA). Full, uncropped images of all blots present in the manuscript figures are included in the source data file.
Densitometric quantification was performed using Image Lab software (Bio-Rad). Stain-free technology was used to visualize the total protein on the gel and normalize the total protein amount in each line. Each presented data point was obtained from distinct sample.

caspase 3/7 = test: Caspase 3/7 activity in NVCM (Caspase-Glo); format: cell-based, rat; details: for Csp3/7 activity: independent replicates
Description: (§1) Caspase activity was assessed on NVCM cells using luciferase-based kits for caspase 3/7, 8 and 9 (Caspase-Glo® 3/7, 8 and 9 assay systems; Promega) according to the manufacturer’s instructions on 384-well plates (Greiner Bio-One). Luminescence signal was measured using Tecan M200 multifunctional plate-reader. All measured groups were corrected for total protein concentration (BCA assay) and were expressed as fold change of the signal over corresponding untreated control group. Each presented data point was obtained from distinct sample. Statistical significance was determined using ratio paired t-test, two-tailed.

caspase 8 = test: Caspase 8 activity in NVCM (Caspase-Glo); format: cell-based, rat; details: for Csp8 activity: independent replicates
Description: as §1

caspase 9 = test: Caspase 9 activity in NVCM (Caspase-Glo); format: cell-based, rat; details: for Csp9 activity: independent replicates
Description: as §1

HL-60 cell line = test: Antiproliferative activity and interference with DAU (MTT), HL-60; format: cell-based, human; details: for HL-60 proliferation (MTT), mean of independent replicates: Suppl.Fig.8c
Description: Antiproliferative effects of studied compounds alone or in combination with DAU were assayed, as described previously, using HL-60 cell line (ATCC® Catalog Number: CCL-240TM, lot 5036502; American Type Culture Collection, Manassas, VA) derived from a patient with acute promyelocytic leukaemia. The cells were cultured in RPMI-1640 medium supplemented with 10% FBS, 50 U/mL penicillin, and 50 μg/mL streptomycin solution at 37 °C in a humidified atmosphere of 5% CO2. For the experiments, cells were seeded on 96-well plates (TPP, Switzerland) at a density of 10,000 cells per well ([…]). […] Proliferation was assessed by the MTT assay. Briefly, 25 µL of 3 mg/mL MTT solution (3(4,5-dimethyl-2-thiazolyl)-2,5-diphenyl-2H-tetrazolium bromide) in PBS was added to each well, and after 2 h of incubation at 37 °C the cells were lysed with lysis buffer (isopropanol, 0.1 M HCl, 5% Triton X-100) for 30 minutes at RT. After the formazan was dissolved, the absorbance of the samples was measured at 570 nm and a reference wavelength at 690 nm (the 690 nm background absorbance was subtracted from the 570 nm values). Data are expressed as mean ± SD from four independent experiments. Normalized values were plotted as a function of inhibitor concentration to determine IC50 values using Prism 9 (GraphPad). Statistical significance was evaluated by ANOVA with the Holm-Sidak post hoc test (P ≤ 0.05, marked as significant difference against control (c) or DAU (d)).

γH2AX [2] = test: γH2AX levels in HL-60 cells (Western blotting); format: cell-based, human; details: for γH2AX level, mean of independent replicates: DAU mean = 100, Suppl.Fig.8d
rabbits = test: Chronic anthracycline cardiotoxicity model in rabbits
Description: Thirty-eight rabbits were used for this purpose using the following study design. Chronic cardiotoxicity was induced by DAU (3 mg/kg, i.v., once weekly for 10 weeks, n = 11), while the control group received the same volume of saline (1 ml/kg, n = 9) in the same way. […] Animal survival was monitored daily, while body weight change was recorded weekly. The experiment was scheduled to end a week after the last dosing of the compounds studied.
Cardiac damage induced by DAU was quantified by determination of cardiac troponin T in plasma before the 1st, 5th, 8th and 10th doses and at the end of the study using a high sensitivity assay (Elecsys Troponin T high sensitive STAT test, Roche Diagnostics, Switzerland, detection limit of 0.003 μg/L). The area under curve (AUC) of the plasma concentration of cardiac troponin T was determined using GraphPad Prism.
The systolic function of the LV was examined throughout the experiment without invasiveness using echocardiography (Vivid 4, probe 10.5 MHz, GE HeathCare) and invasively at the scheduled end of the experiment using LV catheterization (a Millar catheter 2.3 F, Millar Instruments, USA). In the echocardiography examination, the M-mode was used to determine the dimensions of the LV and the fractional shortening of the LV (LVFS) was calculated as an index of systolic function as described previously[46]. Similarly, from the change in LV pressures determined by catheterization of the LV, dP/dtmax was calculated as an index of systolic function as previously described[47]. Statistical significance was determined using one way ANOVA followed by the Holm–Sidak post hoc test or Kruskal–Wallis ANOVA on ranks followed by Dunn’s post hoc test according to the data distribution.
During necropsy, heart was rapidly excised, washed in cold saline and LV free wall was snap frozen in liquid nitrogen. After homogenization in liquid nitrogen, aliquots (aprox. 50 mg) were stored at -80 °C and used for PCR analysis of molecular markers of cardiotoxicity. Total RNA was isolated from rabbit LV myocardium using TRIzol reagent (Sigma-Aldrich). After reverse transcription using a High-Capacity cDNA Reverse Transcription Kit, qPCR was performed with TaqMan Fast Universal PCR Master Mix on QuantStudio 7 Flex Real-Time PCR System (all from Applied Biosystems, Foster City). […] Mean threshold cycle values were transformed into relative expression using the Pfaffl method. Commercial gene expression assays were obtained from Applied Biosystems and Generi Biotech (Hradec Králové, Czech Republic). The expression data were normalized by Hprt1 expression. Statistical significance was determined using one way ANOVA followed by the Holm–Sidak post hoc test or Kruskal–Wallis ANOVA on ranks followed by Dunn’s post hoc test according to the data distribution.

[3] = Topobexin alone, individual animals
[4] = Topobexin+DAU, individual animals

With CCCc1cc(=O)oc2c(C(=O)N3CCCc4ccccc43)c(OCCN3CCN(C)CC3)ccc12 [topobexin (9)] the “γH2AX level, mean” value (γH2AX [1]; 0.1 µM + DAU 1.2 µM) was 39.0271, the γH2AX level (γH2AX [1]; 0.1 µM + DAU 1.2 µM) was 36.8376 and 42.68 and 24.34 and 52.2506 and the “γH2AX level, mean” value (γH2AX [1]; 0.1 µM alone) was 2.32. For the same molecule, the γH2AX level (γH2AX [1]; 0.1 µM alone, DAU mean 100) was 5.77 and 0.9222 and 2.18 and 0.4088, the “γH2AX level, mean” value (γH2AX [1]; 1 µM + DAU 1.2 µM) was 7.0222 and the γH2AX level (γH2AX [1]; 1 µM + DAU 1.2 µM) was 17.1283 and 3.616 and 2.74 and 4.605. The “γH2AX level, mean” value (γH2AX [1]; 1 µM alone) was 3.099, the γH2AX level (γH2AX [1]; 1 µM alone) was 8.242 and 0.9663 and 2.352 and 0.8374 and the “γH2AX level, mean” value (γH2AX [1]; 10 µM + DAU 1.2 µM) was 3.08. For the same molecule, the γH2AX level (γH2AX [1]; 10 µM + DAU 1.2 µM) was 6.036 and 4.664 and 0.5024 and 1.119, the “γH2AX level, mean” value (γH2AX [1]; 10 µM alone) was 2.838 and the γH2AX level (γH2AX [1]; 10 µM alone) was 3.615 and 3.033 and 2.846 and 1.856. The “lowest concentration tested preventing DAU-induced γH2AX” value (γH2AX [1]; NVCM) was 0.1 µM, the “Csp3/7 activity, mean” value (caspase 3/7; Cmpd 9 10 μM + DAU 1.2 μM) was 1.924 fold change and the Csp3/7 activity (caspase 3/7; Cmpd 9 10 μM + DAU 1.2 μM) was 1.455 fold change and 1.638 fold change and 2.77 fold change and 1.323 fold change and 2.6893 fold change and 1.665 fold change. The “Csp3/7 activity, mean” value (caspase 3/7; Cmpd 9 10 μM alone) was 0.9751 fold change, the Csp3/7 activity (caspase 3/7; Cmpd 9 10 μM alone) was 1.249 fold change and 1.002 fold change and 1.008 fold change and 0.6241 fold change and 0.959 fold change and 1.009 fold change and the “DAU-induced apoptotic signaling by caspases 3/7, 8, and 9” value (caspase 3/7; NVCM) was “reduces DAU-induced apoptotic signaling”. For the same molecule, the “Csp8 activity, mean” value (caspase 8; Cmpd 9 10 μM + DAU 1.2 μM) was 1.776 fold change, the Csp8 activity (caspase 8; Cmpd 9 10 μM + DAU 1.2 μM) was 1.323 fold change and 1.259 fold change and 2.008 fold change and 1.4395 fold change and 2.674 fold change and 1.95 fold change and the “Csp8 activity, mean” value (caspase 8; Cmpd 9 10 μM alone) was 1.035 fold change. The Csp8 activity (caspase 8; Cmpd 9 10 μM alone) was 0.9315 fold change and 1.0306 fold change and 0.962 fold change and 0.8268 fold change and 1.054 fold change and 1.403 fold change, the “Csp9 activity, mean” value (caspase 9; Cmpd 9 10 μM + DAU 1.2 μM) was 1.834 fold change and the Csp9 activity (caspase 9; Cmpd 9 10 μM + DAU 1.2 μM) was 1.395 fold change and 1.389 fold change and 2.498 fold change and 1.26 fold change and 2.708 fold change and 1.753 fold change. The “Csp9 activity, mean” value (caspase 9; Cmpd 9 10 μM alone) was 0.9606 fold change, the Csp9 activity (caspase 9; Cmpd 9 10 μM alone) was 0.8436 fold change and 1.03 fold change and 0.994 fold change and 0.6408 fold change and 0.974 fold change and 1.282 fold change and the “effect on antiproliferative effects of DAU” value (HL-60 cell line; HL-60, any concentration tested) was “did not decrease the antiproliferative effects of DAU”. The “HL-60 proliferation (MTT), mean of independent replicates” value (“HL-60 proliferation (MTT), mean” below) (HL-60 cell line; compound 0.01 µM + DAU 1.2 µM) was 39.4171, the “HL-60 proliferation (MTT), mean” value (HL-60 cell line; compound 0.1 µM + DAU 1.2 µM) was 37.298 and the “HL-60 proliferation (MTT), mean” value (HL-60 cell line; compound 1 µM + DAU 1.2 µM) was 37.3478. The “HL-60 proliferation (MTT), mean” value (HL-60 cell line; compound 10 µM + DAU 1.2 µM) was 18.3679, the “HL-60 proliferation (MTT), mean” value (HL-60 cell line; compound 30 µM + DAU 1.2 µM) was 13.5189 and the “HL-60 proliferation (MTT), mean” value (HL-60 cell line; compound 100 µM + DAU 1.2 µM) was 1.772. The “HL-60 proliferation (MTT), mean” value (HL-60 cell line; compound alone 0.01 µM) was 99.5782, the “HL-60 proliferation (MTT), mean” value (HL-60 cell line; compound alone 0.1 µM) was 97.2193 and the “HL-60 proliferation (MTT), mean” value (HL-60 cell line; compound alone 1 µM) was 91.5968. The “HL-60 proliferation (MTT), mean” value (HL-60 cell line; compound alone 10 µM) was 13.6521, the “HL-60 proliferation (MTT), mean” value (HL-60 cell line; compound alone 30 µM) was 12.3063 and the “HL-60 proliferation (MTT), mean” value (HL-60 cell line; compound alone 100 µM) was 1.671. For the same molecule, the “concentration with statistically significant decrease in γH2AX levels” value (γH2AX [2]; HL-60, DAU, highest concentration tested) was 10 µM, the “γH2AX level, mean of independent replicates” value (γH2AX [2]; compound 0.1 µM + DAU 1.2 µM) was 85.0292 and the “γH2AX level, mean of independent replicates” value (γH2AX [2]; compound 0.3 µM + DAU 1.2 µM) was 71.0118. For the same molecule, the “γH2AX level, mean of independent replicates” value (γH2AX [2]; compound 1 µM + DAU 1.2 µM) was 59.3884, the “γH2AX level, mean of independent replicates” value (γH2AX [2]; compound 3 µM + DAU 1.2 µM) was 59.6746 and the “γH2AX level, mean of independent replicates” value (γH2AX [2]; compound 10 µM + DAU 1.2 µM) was 31.6085. The “γH2AX level, mean of independent replicates” value (γH2AX [2]; compound alone 0.1 µM) was 21.4098, the “γH2AX level, mean of independent replicates” value (γH2AX [2]; compound alone 0.3 µM) was 25.2396 and the “γH2AX level, mean of independent replicates” value (γH2AX [2]; compound alone 1 µM) was 23.449. The “γH2AX level, mean of independent replicates” value (γH2AX [2]; compound alone 3 µM) was 19.8181, the “γH2AX level, mean of independent replicates” value (γH2AX [2]; compound alone 10 µM) was 24.2375 and the Body weight gain (rabbits; [3]) was 141.3 and 136.4 and 124.5 and 123.7 and 134.0 and 143.6 and 132.0. The “Brain natriuretic peptide mRNA, LV myocardium” value (rabbits; [3]) was 3.72 and 0.42 and 0.55 and 0.81 and 0.90 and 0.28 and 2.33, the “Collagen I alpha 1 mRNA” value (rabbits; [3]) was 1.54 and 1.27 and 0.81 and 0.88 and 1.14 and 1.41 and 1.19 and the “Fibronectin 1 mRNA” value (rabbits; [3]) was 1.41 and 1.30 and 1.55 and 1.58 and 1.78. The “LV FS (LMV)” value (rabbits; [3]) was 42.0 and 40.5 and 42.5 and 43.5 and 39.0 and 43.0, the “LV dP/dtmax” value (rabbits; [3]) was 7750 and 7165 and 9815 and 8309 and 8311 and 8034 and 7362 and the “Δ LV FS (LMV)” value (rabbits; [3]) was 1.0 and -1.5 and 2.0 and -1.0 and -2.5. For the same molecule, the Body weight gain (rabbits; [4]) was 104.9 and 134.7 and 121.0 and 128.3 and 113.2 and 106.8 and 114.9 and 101.0 and 104.7, the “Brain natriuretic peptide mRNA, LV myocardium” value (rabbits; [4]) was 1.55 and 3.15 and 0.69 and 1.65 and 1.04 and 0.65 and 5.19 and 1.00 and 2.01 and 1.22 and 0.48 and the “Collagen I alpha 1 mRNA” value (rabbits; [4]) was 0.77 and 1.31 and 1.34 and 2.10 and 1.65 and 1.81 and 2.59 and 0.95 and 1.66 and 0.86 and 1.09. The “Fibronectin 1 mRNA” value (rabbits; [4]) was 0.87 and 1.85 and 1.50 and 1.99 and 1.56 and 2.18 and 3.87 and 1.34 and 1.94 and 1.25 and 1.18, the “LV FS (LMV)” value (rabbits; [4]) was 42.0 and 43.5 and 39.3 and 42.3 and 44.0 and 42.8 and 40.0 and 41.0 and 43.8 and the “LV dP/dtmax” value (rabbits; [4]) was 8562 and 8147 and 6788 and 7928 and 8340 and 7337 and 7402 and 8558 and 8112 and 8066 and 7973. The “Δ LV FS (LMV)” value (rabbits; [4]) was -1.5 and 3.0 and -2.3 and 0.5 and 4.0 and -0.3 and -4.0 and -1.0 and 0.0 and 2.3 and 2.0, the tolerability (rabbits; alone or with DAU, weekly for 10 weeks) was “well tolerated” and the “Body weight gain” value (rabbits; topobexin + DAU) was “matched the DAU group”. For the same molecule, the “LV expression of BNP” value (rabbits; topobexin + DAU) was “prevented by co-administration of topobexin (9)”, the “LV systolic function (echocardiography)” value (rabbits; topobexin + DAU) was “effectively prevented the DAU-induced decrease in LV systolic function” and the “cardiomyocyte damage, plasma cTnT” value (rabbits; topobexin + DAU) was “effectively prevented by topobexin (9)”. For the same molecule, the survival (rabbits; topobexin + DAU) was “survived until the scheduled end of the experiment” and the “Body weight gain” value (rabbits; topobexin alone) was “did not differ from the control group”.
